Laboratory results: patent US20260165973A1 (MERCK SHARP & DOHME LLC, priority 2023, published 2026)

Legend:
[1] = Solubility / solubilization assessment of doravirine and islatravir; assay type: physicochemical; conditions: islatravir: in water and dissolution media
From the text: Details are provided in Example 5.
The manufacturing process includes standard unit operations and equipment for tablet production.

[2] = open container at 5° C./ambient RH, 30° C./65% RH, 40° C./75% RH, and 60° C./ambient RH; cited from earlier work

## C#C[C@@]1(CO)O[C@H](n2cnc3c(N)nc(F)nc32)C[C@H]1O [islatravir, (2S,3R,5S)-5-(6-amino-2-fluoro-9H-purin-9-yl)-2-ethynyl-2-(hydroxymethyl)tetrahydrofuran-3-ol]
[1]
  Solubility: high solubility

## Cn1c(Cn2ccc(C(F)(F)F)c(Oc3cc(Cl)cc(C#N)c3)c2=O)n[nH]c1=O [Neat amorphous doravirine, 3-chloro-5-({1-[(4-methyl-5-oxo-4,5-dihydro-1H-1,2,4-triazol-3-yl)methyl]-2-oxo-4-(trifluoromethyl)-1,2-dihydropyridin-3-yl}oxy)benzonitrile]
[2]
  Time to crystallization on storage: ≤ 2 weeks
